Reference: article PMC10938783, “A novel pan-PI3K inhibitor KTC1101 synergizes with anti-PD-1 therapy by targeting tumor suppression and immune activation” (Molecular Cancer, 2024)

Legend:
B16 tumors = experiment: B16 syngeneic model in C57BL/6 mice; format: in vivo, mouse
[1] = test system: PC3, TMD8, HSC2, HSC4, CAL33 cells; experiment: Cell proliferation MTT assay, five tumor cell lines; format: cell-based; details: Homo sapiens; cell viability assay; read-out: IC50 range over PC3, TMD8, HSC2, HSC4, CAL33 cells
Description: (§1) Cell proliferation was measured by MTT assay as previously described. The cells were seeded in a volume of 200 μL/well in 96-well plates. The next day, cells were treated with DMSO or a series of concentrations of KTC1101. After a 48-h incubation period, 20 μL of MTT (5 mg/mL) was added to each well. After further incubation for 4 h at 37 °C, the absorbance at 490 nm was measured using an iMark microplate reader (BIO-RAD, Hercules, CA, USA).

HSC4 cells = experiment: Cell proliferation MTT assay; format: cell-based; details: Homo sapiens, HSC-4; HSC4, 48-h treatment; read-out: IC50 cell viability
Description: as §1

TMD8 cells = experiment: Cell proliferation MTT assay; format: cell-based; details: Homo sapiens; TMD8, 48-h treatment; read-out: IC50 cell viability
Description: as §1

CAL33 cells = experiment: Cell proliferation MTT assay; format: cell-based; details: Homo sapiens, CAL-33; CAL33, 48-h treatment; read-out: IC50 cell viability
Description: as §1

HSC2 cells = experiment: Cell proliferation MTT assay; format: cell-based; details: Homo sapiens, HSC-2; HSC2, 48-h treatment; read-out: IC50 cell viability
Description: as §1

PC3 cells = experiment: Cell proliferation MTT assay; format: cell-based; details: Homo sapiens, PC-3; PC3, 48-h treatment; read-out: IC50 cell viability
Description: as §1

OVCAR-4 = experiment: JFCR39 sulforhodamine B growth assay; format: cell-based; details: Homo sapiens, OVCAR-4, 48 h
Description: (§2) JFCR39 drug discovery system was used to measure the growth inhibitory activities and identify the target of KTC1101. The JFCR39 panel consists of 39 cell lines seeded in 96-well plates. After 48-h treatment with KTC1101, cell growth was measured using the sulforhodamine B assay. […] The deviation of log GI50 for each cell line from the average log GI50 across the JFCR39 panel was plotted as a fingerprint. MG-MID (mean of Log GI50 values) represents the average log GI50 for all 39 cell lines. The most sensitive and least sensitive cell lines were identified by calculating the difference in their log GI50 values (Range) and the difference between the most sensitive cell line and the average GI50 on the JFCR39 panel (Delta). The fingerprint of KTC1101 was compared with the fingerprints of reference compounds in the database. The Pearson correlation coefficient (r) was calculated (n = 39).

SK-OV-3 = experiment: JFCR39 sulforhodamine B growth assay; format: cell-based; details: Homo sapiens, SK-OV-3, 48 h
Description: as §2

A549 = experiment: JFCR39 sulforhodamine B growth assay; format: cell-based; details: Homo sapiens, A549, 48 h
Description: as §2

MDA-MB-231 = experiment: JFCR39 sulforhodamine B growth assay; format: cell-based; details: Homo sapiens, MDA-MB-231, 48 h
Description: as §2

DU-145 = experiment: JFCR39 sulforhodamine B growth assay; format: cell-based; details: Homo sapiens, DU-145, 48 h
Description: as §2

NCI-H23 = experiment: JFCR39 sulforhodamine B growth assay; format: cell-based; details: Homo sapiens, NCI-H23, 48 h
Description: as §2

BSY-1 = experiment: JFCR39 sulforhodamine B growth assay; format: cell-based; details: Homo sapiens, BSY-1, 48 h
Description: as §2

PC-3 = experiment: JFCR39 sulforhodamine B growth assay; format: cell-based; details: Homo sapiens, PC-3, 48 h
Description: as §2

LOX-IMVI = experiment: JFCR39 sulforhodamine B growth assay; format: cell-based; details: Homo sapiens, 48 h
Description: as §2

OVCAR-5 = experiment: JFCR39 sulforhodamine B growth assay; format: cell-based; details: Homo sapiens, OVCAR-5, 48 h
Description: as §2

MCF-7 = experiment: JFCR39 sulforhodamine B growth assay; format: cell-based; details: Homo sapiens, MCF7; MCF-7, 48 h
Description: as §2

DMS114 = experiment: JFCR39 sulforhodamine B growth assay; format: cell-based; details: Homo sapiens, DMS-114; DMS114, 48 h
Description: as §2

HCT-116 = experiment: JFCR39 sulforhodamine B growth assay; format: cell-based; details: Homo sapiens, HCT-116, 48 h
Description: as §2

SNB-75 = experiment: JFCR39 sulforhodamine B growth assay; format: cell-based; details: Homo sapiens, SNB-75, 48 h
Description: as §2

DMS273 = experiment: JFCR39 sulforhodamine B growth assay; format: cell-based; details: Homo sapiens, DMS-273; DMS273, 48 h
Description: as §2

HT-29 = experiment: JFCR39 sulforhodamine B growth assay; format: cell-based; details: Homo sapiens, HT-29, 48 h
Description: as §2

SNB-78 = experiment: JFCR39 sulforhodamine B growth assay; format: cell-based; details: Homo sapiens, SNB-78, 48 h
Description: as §2

SF-268 = experiment: JFCR39 sulforhodamine B growth assay; format: cell-based; details: Homo sapiens, SF-268, 48 h
Description: as §2

MKN74 = experiment: JFCR39 sulforhodamine B growth assay; format: cell-based; details: Homo sapiens, MKN-74; MKN74, 48 h
Description: as §2

HBC-4 = experiment: JFCR39 sulforhodamine B growth assay; format: cell-based; details: Homo sapiens, HBC4; HBC-4, 48 h
Description: as §2

ACHN = experiment: JFCR39 sulforhodamine B growth assay; format: cell-based; details: Homo sapiens, 48 h
Description: as §2

U251 = experiment: JFCR39 sulforhodamine B growth assay; format: cell-based; details: Homo sapiens, U-251; U251, 48 h
Description: as §2

NCI-H460 = experiment: JFCR39 sulforhodamine B growth assay; format: cell-based; details: Homo sapiens, NCI-H460, 48 h
Description: as §2

MKN45 = experiment: JFCR39 sulforhodamine B growth assay; format: cell-based; details: Homo sapiens, MKN-45; MKN45, 48 h
Description: as §2

HCT-15 = experiment: JFCR39 sulforhodamine B growth assay; format: cell-based; details: Homo sapiens, HCT-15, 48 h
Description: as §2

SF-295 = experiment: JFCR39 sulforhodamine B growth assay; format: cell-based; details: Homo sapiens, SF-295, 48 h
Description: as §2

RXF-631L = experiment: JFCR39 sulforhodamine B growth assay; format: cell-based; details: Homo sapiens, 48 h
Description: as §2

With COc1cc(N)cc2c1nc(C(F)F)n2-c1nc(N2CCCOCC2)nc(N2CCOCC2)n1 [KTC1101, 2-(difluoromethyl)-4-methoxy-1-(4-morpholino-6-(1,4-oxazepan-4-yl)-1,3,5-triazin-2-yl)-1H-benzo[d]imidazol-6-amine] the “tumor growth over 14 days” value (B16 tumors; B16, 50 mg/kg, daily) was “comparably suppressed tumor growth”, the mouse body weight (B16 tumors; B16, 100 mg/kg 3 days on/4 days off and 50 mg/kg daily, 14 days) was “without significant changes in mouse body weight” and the “tumor growth over 14 days” value (B16 tumors; B16, 100 mg/kg, 3 days on/4 days off) was “comparably suppressed tumor growth”. The mouse survival (B16 tumors; B16, intermittent regimen 100 mg/kg 3 days on/4 days off vs continuous) was “notably prolonged mouse survival”, the IC50 [1] was 20 to 130 nM and the IC50 (HSC4 cells) was 50.6 nM. For the same compound, the IC50 (TMD8 cells) was 20.6 nM, the IC50 (CAL33 cells) was 124 nM and the IC50 (HSC2 cells) was 117 nM. The IC50 (PC3 cells) was 23.2 nM, the GI50 (OVCAR-4) was 61.7 nM and the GI50 (SK-OV-3) was 12.9 nM. The GI50 (A549) was 21.9 nM, the GI50 (MDA-MB-231) was 30.2 nM and the GI50 (DU-145) was 23.4 nM. It also gave a GI50 (NCI-H23) of 25.7 nM, a GI50 (BSY-1) of 10 nM and a GI50 (PC-3) of 15.8 nM. For the same compound, the GI50 (LOX-IMVI) was 17.4 nM, the GI50 (OVCAR-5) was 23.4 nM and the GI50 (MCF-7) was 10 nM. For the same compound, the GI50 (DMS114) was 10 nM, the GI50 (HCT-116) was 31.6 nM and the GI50 (SNB-75) was 10 nM. For the same compound, the GI50 (DMS273) was 11 nM, the GI50 (HT-29) was 61.7 nM and the GI50 (SNB-78) was 22.9 nM. The GI50 (SF-268) was 18.2 nM, the GI50 (MKN74) was 70.8 nM and the GI50 (HBC-4) was 24.5 nM. For the same compound, the GI50 (ACHN) was 21.4 nM, the GI50 (U251) was 38 nM and the GI50 (NCI-H460) was 10 nM. For the same compound, the GI50 (MKN45) was 162 nM, the GI50 (HCT-15) was 17.8 nM and the GI50 (SF-295) was 14.8 nM. It also gave a GI50 (RXF-631L) of 15.5 nM.
